The values that follow come from patent US8980886B2, “Anthranilic acid derivatives” (Bayer Cropscience AG, priority 2010, dated 2015).

Like-named read-outs stand apart in the source and are kept apart here.

Data set [1] in a line: logP by HPLC on reversed-phase columns (C 18), EEC Directive 79/831 Annex V.A8. The settings on record: reversed-phase C 18, acidic range pH 2.7; for chromatographic logP: reversed-phase HPLC column (C 18), pH 2.7, HPLC. In kind it is physicochemical. As to the method:
The logP values reported in the table above and in the Preparation Examples were determined in accordance with EEC Directive 79/831 Annex V.A8 by HPLC (High Performance Liquid Chromatography) on reversed-phase columns (C 18), with the following methods: The LC-MS determination in the acidic range is carried out at pH 2.7 using the mobile phases 0.1% aqueous formic acid and acetonitrile (contains 0.1% formic acid), linear gradient from 10% acetonitrile to 95% acetonitrile Calibration was carried out using unbranched alkan-2-ones (having from 3 to 16 carbon atoms) with known logP values (the logP values were determined by the retention times using linear interpolation between two successive alkanones).

For the next data set, the system named is Phaedon cochleariae. The data set is described as follows: Phaedon test (PHAECO spray treatment). It counts as in vivo. The settings on record: 168 h, sprayed Chinese cabbage discs, after 7 days, read-out: activity in % (beetle larvae killed). As to the method: (§1) Solvents: 78.0 parts by weight of acetone 1.5 parts by weight of dimethylformamide Emulsifier: 0.5 part by weight of alkylaryl polyglycol ether To produce a suitable preparation of active compound, 1 part by weight of active compound is mixed with the stated amount of solvents and emulsifier, and the concentrate is diluted with emulsifier-containing water to the desired concentration. Discs of Chinese cabbage (Brassica pekinensis) are sprayed with an active compound preparation of the desired concentration and, after drying, populated with larvae of the mustard beetle (Phaedon cochleariae). After 7 days, the activity in % is determined. 100% means that all beetle larvae have been killed; 0% means that none of the beetle larvae have been killed.

For the next data set, the system named is Spodoptera frugiperda. As to the kind of experiment: Spodoptera frugiperda test (SPODFR spray treatment). In kind it is in vivo. The settings on record: foliar, 168 h, sprayed maize leaf discs, after 7 days, read-out: effect in % (caterpillars killed). As to the method: as §1, with “maize leaves (Zea mays)” for “Chinese cabbage (Brassica pekinensis)”, “caterpillars” for “larvae”, “armyworm (Spodoptera frugiperda).” for “mustard beetle (Phaedon cochleariae).”, “effect” for “activity”, “determined” for “determined.”, “caterpillars” for “beetle larvae”

[2] abbreviates: table of compounds, read-out: log P.

In the case of `CNC(=O)c1cc(Cl)cc(C)c1NC(=O)c1cn(Cc2ccc(C(F)(F)F)nc2)nc1-c1ccccc1Cl` [Compound 4], the chromatographic logP in data set [1] (setting [2]) came to 3.12.
For the compound `CNC(=O)c1cc(Br)cc(C)c1NC(=O)c1sc(Cn2nnc(C(F)(F)F)n2)nc1-c1ccccc1Cl` [Compound 12], the pest or weed control at 100 g/ha with Phaedon cochleariae was determined as 83%. For the same compound, the chromatographic logP in data set [1] (setting [2]) worked out at 3.73.
Turning to `CNC(=O)c1cc(C#N)cc(C)c1NC(=O)c1sc(Cn2nnc(C(F)(F)F)n2)nc1-c1ccccc1Cl` [Compound 14], the pest or weed control at 100 g/ha in the data set with Spodoptera frugiperda came out at 100%. Moreover, the chromatographic logP in data set [1] (setting [2]) was determined as 3.19.
Take `CNC(=O)c1cc(Cl)cc(C)c1NC(=O)c1cnc(Cn2nnc(C(F)(F)F)n2)nc1-c1ccccc1Cl` [N-[4-chloro-2-methyl-6-(methylcarbamoyl)phenyl]-4-(2-chlorophenyl)-2-{[5-(trifluoromethyl)-2H-tetrazol-2-yl]methyl}pyrimidine-5-carboxamide]: the chromatographic logP in data set [1] (Preparation Examples) turned out to be 3.13.
For `CNC(=O)c1cc(Cl)cc(C)c1NC(=O)c1cnc(Cn2nnc(C(F)(F)F)n2)nc1-c1ccccc1Cl` [Compound 36], the pest or weed control at 100 g/ha in the data set with Phaedon cochleariae and in the data set on Spodoptera frugiperda was 100% throughout. The chromatographic logP in data set [1] (setting [2]) was 3.31.
Compound `COC(=O)c1sc(Cn2nnc(C(F)(F)F)n2)nc1-c1ccccc1Cl` [Example No. XIII, methyl 4-(2-chlorophenyl)-2-{[5-(trifluoromethyl)-2H-tetrazol-2-yl]methyl}-1,3-thiazole-5-carboxylate] returned a chromatographic logP in data set [1] (Preparation Examples) of 3.6.
`COC(=O)c1sc(CBr)nc1-c1ccccc1Cl` [Example No. XII, methyl 2-(bromomethyl)-4-(2-chlorophenyl)-1,3-thiazole-5-carboxylate] returned a chromatographic logP in data set [1] (Preparation Examples) of 4.12.
For `O=C(O)c1sc(Cn2nnc(C(F)(F)F)n2)nc1-c1ccccc1Cl` [Example No. X (IV-2), 4-(2-chlorophenyl)-2-{[5-(trifluoromethyl)-2H-tetrazol-2-yl]methyl}-1,3-thiazole-5-carboxylic acid], the chromatographic logP in data set [1] (Preparation Examples) is 2.63.
As for `Cc1cc(C#N)cc(C(=O)NC(C)C)c1NC(=O)c1nc(Cn2nnc(C(F)(F)F)n2)oc1-c1ccccc1Cl` [Compound 15], the chromatographic logP in data set [1] (setting [2]) was 3.69.
In the case of `Cc1cc(Cl)cc(C(=O)NC(C)C)c1NC(=O)c1sc(Cn2nnc(C(F)(F)F)n2)nc1-c1ccccc1Cl` [Compound 32], the pest or weed control at 100 g/ha with Phaedon cochleariae and with Spodoptera frugiperda was 100% each time. Further, the chromatographic logP in data set [1] (setting [2]) stood at 4.15.
As for `Cc1cc(C#N)cc(C(=O)NC(C)(C)C)c1NC(=O)c1nc(Cn2nnc(C(F)(F)F)n2)oc1-c1ccccc1Cl` [Compound 7], the chromatographic logP in data set [1] (setting [2]) was determined as 3.95.
Take `Cc1cc(Cl)cc2c(=O)oc(-c3cnc(Cn4nnc(C(F)(F)F)n4)nc3-c3ccccc3Cl)nc12` [6-chloro-2-[4-(2-chlorophenyl)-2-{[5-(trifluoromethyl)-2H-tetrazol-2-yl]methyl}pyrimidin-5-yl]-8-methyl-4H-3,1-benzoxazin-4-one]: in data set [1] (Preparation Examples), the chromatographic logP was 5.16.
In the case of `COC(=O)c1cc(C(=O)Cn2nnc(C(F)(F)F)n2)cn1-c1ncccc1Cl` [Example No. XVII, methyl 1-(3-chloropyridin-2-yl)-4-{[5-(trifluoromethyl)-2H-tetrazol-2-yl]acetyl}-1H-pyrrole-2-carboxylate], in data set [1] (Preparation Examples), the chromatographic logP was 2.97.
As for `Cc1cc(Br)cc(C(=O)NC(C)(C)C)c1NC(=O)c1nc(Cn2nnc(C(F)(F)F)n2)oc1-c1ccccc1Cl` [Compound 22], in data set [1] (setting [2]), the chromatographic logP was 4.52.
As to `CCOC(=O)c1cnc(CBr)nc1-c1ccccc1Cl` [Example No. (IX), ethyl 2-(bromomethyl)-4-(2-chlorophenyl)pyrimidine-5-carboxylate], the chromatographic logP in data set [1] (Preparation Examples) came to 3.32.
Regarding `Cc1cc(Br)cc(C(=O)NC(C)C)c1NC(=O)c1nc(Cn2nnc(C(F)(F)F)n2)oc1-c1ccccc1Cl` [Compound 23], the chromatographic logP in data set [1] (setting [2]) is 4.21.
Still for that read-out and setting: with `Cc1cc(Cl)cc(C(=O)NC(C)C)c1NC(=O)c1nc(Cn2nnc(C(F)(F)F)n2)sc1-c1ccccc1Cl` [Compound 2] the figure was 4.34; with `Cc1cc(Cl)cc(C(=O)NC(C)C)c1NC(=O)c1nc(Cn2nnc(C(F)(F)F)n2)oc1-c1ccccc1Cl` [Compound 19], 4.11.
Take `Cc1cc(Cl)cc(C(=O)NC(C)(C)C)c1NC(=O)c1sc(Cn2nnc(C(F)(F)F)n2)nc1-c1ccccc1Cl` [Compound 27]: the pest or weed control at 100 g/ha in the data set with Phaedon cochleariae and in the data set on Spodoptera frugiperda was 100% throughout. In data set [1] (setting [2]), the chromatographic logP came out at 4.59.
With `Cc1cc(Cl)cc(C(N)=O)c1NC(=O)c1sc(Cn2nnc(C(F)(F)F)n2)nc1-c1ccccc1Cl` [Compound 13], the pest or weed control at 100 g/ha with Phaedon cochleariae and in the data set on Spodoptera frugiperda was 100% each time. The chromatographic logP in data set [1] (setting [2]) was 3.34.
As to `CNC(=O)c1cc(Br)cc(C)c1NC(=O)c1nc(Cn2nnc(C(F)(F)F)n2)oc1-c1ccccc1Cl` [Compound 21], the chromatographic logP in data set [1] (setting [2]) is 3.72.
Still for that read-out and setting: the same measure for `CNC(=O)c1cc(C#N)cc(C)c1NC(=O)c1nc(Cn2nnc(C(F)(F)F)n2)oc1-c1ccccc1Cl` [Compound 6]: 3.25; for `Cc1cc(Br)cc(C(=O)NC(C)(C)C)c1NC(=O)c1nc(Cn2nnc(C(F)(F)F)n2)sc1-c1ccccc1Cl` [Compound 29]: 4.83.
Consider `CNC(=O)c1cc(Cl)cc(C)c1NC(=O)c1nc(Cn2nnc(C(F)(F)F)n2)oc1-c1ccccc1Cl` [Compound 16], for which the chromatographic logP in data set [1] (setting [2]) came to 3.65.
For the compound `CCOC(=O)c1cnc(Cn2nnc(C(F)(F)F)n2)nc1-c1ccccc1Cl` [Example No. (X), ethyl 4-(2-chlorophenyl)-2-[5-(trifluoromethyl)-2H-tetrazol-2-yl]methylpyrimidine-5-carboxylate], the chromatographic logP in data set [1] (Preparation Examples) amounted to 3.56.
With `O=C(Cn1nnc(C(F)(F)F)n1)c1cc(C(=O)O)n(-c2ncccc2Cl)c1` [Example No. IV-3, 1-(3-chloropyridin-2-yl)-4-{[5-(trifluoromethyl)-2H-tetrazol-2-yl]acetyl}-1H-pyrrole-2-carboxylic acid], in data set [1] (Preparation Examples), the chromatographic logP was 2.24.
Consider `Cc1cc(Br)cc(C(=O)NC(C)C)c1NC(=O)c1nc(Cn2nnc(C(F)(F)F)n2)sc1-c1ccccc1Cl` [Compound 5], for which the chromatographic logP in data set [1] (setting [2]) stood at 4.48.
In the case of `Cc1cc(Cl)cc(C(N)=O)c1NC(=O)c1nc(Cn2nnc(C(F)(F)F)n2)oc1-c1ccccc1Cl` [Compound 20], in data set [1] (setting [2]), the chromatographic logP was determined as 3.45.
`COC(=O)c1cc(C(C)=O)cn1-c1ncccc1Cl` [Example No. XV, methyl 4-acetyl-1-(3-chloropyridin-2-yl)-1H-pyrrole-2-carboxylate] showed a chromatographic logP in data set [1] (Preparation Examples) of 1.74.
The same measure, in the same setting: with `COC(=O)c1cc(C(=O)CBr)cn1-c1ncccc1Cl` [Example No. XVI, methyl 4-(bromoacetyl)-1-(3-chloropyridin-2-yl)-1H-pyrrole-2-carboxylate] the figure was 2.28.
Turning to `Cc1cc(C#N)cc(C(=O)NC(C)(C)C)c1NC(=O)c1nc(Cn2nnc(C(F)(F)F)n2)sc1-c1ccccc1Cl` [Compound 28], the chromatographic logP in data set [1] (setting [2]) was determined as 4.29.
Still for that read-out and setting: the same measure for `CNC(=O)c1cc(Br)cc(C)c1NC(=O)c1nc(Cn2nnc(C(F)(F)F)n2)sc1-c1ccccc1Cl` [Compound 1]: 3.98.
In the case of `O=C(O)c1cnc(Cn2nnc(C(F)(F)F)n2)nc1-c1ccccc1Cl` [Example No. (IV-1), 4-(2-chlorophenyl)-2-[5-(trifluoromethyl)-2H-tetrazol-2-yl]methylpyrimidine-5-carboxylic acid], the chromatographic logP in data set [1] (Preparation Examples) worked out at 2.5.
On to `CNC(=O)c1cc(C#N)cc(C)c1NC(=O)c1cc(C(=O)Cn2nnc(C(F)(F)F)n2)cn1-c1ncccc1Cl` [Compound 33], for which the chromatographic logP in data set [1] (setting [2]) was found to be 2.75.
The term log P denotes the decadic logarithm of the partition coefficient of the neutral form, usually between octanol and water. `CNC(=O)c1cc(C#N)cc(C)c1NC(=O)c1cn(Cc2ccc(C(F)(F)F)nc2)nc1-c1ccccc1Cl` [Compound 31]: in the data set on Spodoptera frugiperda, the pest or weed control at 100 g/ha was 100%. Also, the “log P” value in data set [1] (HPLC, table of compounds) worked out at 2.83. The chromatographic logP in data set [1] (setting [2]) stood at 2.78.
Take `CNC(=O)c1cc(C#N)cc(C)c1NC(=O)c1nc(Cn2nnc(C(F)(F)F)n2)sc1-c1ccccc1Cl` [Compound 24]: in data set [1] (setting [2]), the chromatographic logP worked out at 3.46.
Take `Cc1cc(Cl)cc(C(=O)NC(C)(C)C)c1NC(=O)c1nc(Cn2nnc(C(F)(F)F)n2)oc1-c1ccccc1Cl` [Compound 18]: in data set [1] (setting [2]), the chromatographic logP is 4.46.
On to `CNC(=O)c1cc(Cl)cc(C)c1NC(=O)c1sc(Cn2nnc(C(F)(F)F)n2)nc1-c1ccccc1Cl` [Compound 10], for which the pest or weed control at 100 g/ha in the data set on Phaedon cochleariae amounted to 100%. For the same compound, the chromatographic logP in data set [1] (setting [2]) was 3.63.
